Measurements as given in paper PMC12429841, “Monothiooxalamide–Benzothiazole Hybrids: Predictive Docking on HDAC6, Synthesis, Molecular Structure, and Antiproliferative Activity on Breast Cancer Cells” (International Journal of Molecular Sciences, 2025).

Legend:
MCF-7 cells [1] = assay: Antiproliferative activity, MTT assay, MCF-7; type: cell-based, human; conditions: for IC50: Homo sapiens, MCF7, MTT, mean ± SD of at least three independent experiments
Description: (§1) The antiproliferative effect of monothiooxalamides 1a–d and 2a–d was assessed in MCF-7 (human breast cancer cell line with estrogen, progesterone, and glucocorticoid receptors), MDA-MB-231 (triple-negative human breast cancer), MCF-10A (non-tumorigenic human mammary epithelial cell line), and NIH/3T3 (mouse fibroblast). The cytotoxicity is expressed as IC50 values in micromolar concentrations, Table 4. […] In contrast, the cytotoxic effect on triple-negative cells MDA-MB-231 was similar to that observed in MCF-10A. […] Nevertheless, it is worth considering that NIH/3T3 are mouse fibroblasts, while the other three cell lines are human cells; therefore, the physiological differences between both species could play an essential role in the exerted effect. Several studies have evaluated 2-aminobenzothiazole derivatives against various cell lines. The targets of this kind of compounds are wide, including HDAC6, tyrosine kinase receptors family (CSF1R kinase, EGFR kinase, VEGFR-2 kinase, FAK kinase), serine/threonine kinases, lysine-specific demethylase (LSD1), phosphoinositide 3-kinase (PI3K), topoisomerases (I and II), Heat shock protein (HSP90), p53, nuclear receptor binding set (NSD1), microsomal prostaglandin E synthase-1 (mPGES-1), and also as chelators of metal ions, which are necessaries for critical biological processes such as gene expression, oxygen transport, and cell respiration. In all cases, the IC50 values were reported in a wide range, from 1 nM to 50 µM. On the other hand, our research group reported a family of MTAs containing 2-aminopyridine, with an activity range of 0.19–18 µM against several human cancer cell lines (A2780-wt, A2780-cis-MSTO-211H, and HT-29). […] Whereas 1c could be a feasible candidate to obtain better results compared with 1a, 2a–c, which were highly cytotoxic to non-tumorigenic cells. As a perspective, the synergic activity of 1c, in combination with antioxidants like curcumin, resveratrol, and quercetin, could also be explored, with the aim to sensitize cancer cells against cytotoxic agents and diminish their toxicity in non-tumorigenic cells. In contrast, MTX, which is an antineoplastic drug, is widely used for many kinds of cancer treatments, including breast cancer. Their mechanism of action is related to the inhibition of dihydrofolate reductase (DHFR). […] Nevertheless, MTX exerted an undesirable effect on NIH/3T3 cells. Although the compounds were not better than MTX, their antiproliferative effect was similar to 2ABT, thioureas, 3-carboxy-coumarin sulfonamides, pyrimethamine conjugates, and N-hydroxycinnamide analogs. Highlighting its low toxicity to non-tumor cells, 1c might be a better option than methotrexate to reduce adverse side effects associated with chemotherapy.
(§2) MDA-MB-231 adenocarcinoma cell line was procured from ATCC (CRM-HTB-26TM). […] Cell culture was performed in the appropriate medium for each cell line (MCF-7, MDA-MB-231, MCF-10A, and NIH/3T3). MCF-7, MDA-MB-231, and NIH/3T3 cells were grown in Dulbecco’s modified Eagle Medium (DMEM) high-glucose with phenol red, supplemented with fetal bovine serum inactivated by heat (10%) (BioWest, Miami, FL, USA) and antibiotic (100 U/mL penicillin and […] streptomycin). MCF-10A were grown in DMEM-F12 medium, supplemented with 5% of horse serum inactivated by heat (Biowest, Miami, FL, USA), […] of insulin, 20 ng/mL of epidermal growth factor, 500 ng/mL hydrocortisone, and antibiotic (100 U/mL penicillin and […] streptomycin). All cell lines were incubated at 37 °C with 5% CO2 after reaching 80% confluence at 24 h. The cells were seeded in a 96-well cell culture plate (10,000 cells/well). After incubation, the cells were treated with compounds (1a–1d and 2a–2d) at varying concentrations (100, 50, 25, 12.5, and 6.25 µM) and then incubated for 42 h under standard conditions. […]

MDA-MB-231 cells [2] = assay: Antiproliferative activity, MTT assay, MDA-MB-231; type: cell-based; conditions: Homo sapiens, mean ± SD of at least three independent experiments
Description: as §1, §2

NIH/3T3 cells [3] = assay: Antiproliferative activity, MTT assay, NIH/3T3; type: cell-based; conditions: NIH3T3, mouse fibroblast, mean ± SD
Description: as §1
as §2, with “streptomycin).” for “streptomycin). All cell lines were incubated at 37 °C with 5% CO2 after reaching 80% confluence at 24 h. The cells were seeded in a 96-well cell culture plate (10,000 cells/well). After incubation, the cells were treated with compounds (1a–1d and 2a–2d) at varying concentrations (100, 50, 25, 12.5, and 6.25 µM) and then incubated for 42 h under standard conditions.”

MCF-10A cells = assay: Antiproliferative activity, MTT assay, MCF-10A; type: cell-based; conditions: Homo sapiens, non-tumorigenic cells, mean ± SD
Description: as §1, §2

MDA-MB-231 cells [4] = assay: Wound closure (cell migration) assay; type: cell-based, human; conditions: MDA-MB-231, treated at IC50 concentration; for wound closure rate: 0-48 h; for maximum wound closure: 48 h
Description: The triple-negative cancer, produced by MDA-MB-231 cells, is highly invasive and metastatic, capable of migrating to other tissues. […] The wound closure begins at 12 h, at this time, there is a significant difference between cells treated with compound 1c and MTX compared with non-treated cells. Nevertheless, the maximum effect is observed at 48 h, when wound closure is complete for non-treated cells. For cells treated with compound 1c, the maximum wound closure was 51%, while for the reference drug, MTX, it was 38% at 48 h. In both cases, there is a significant difference from the control, with wound closure rates of −2.0 ± 0.1 (R = 0.98), −1.0 ± 0.1 (R = 0.94), and −0.7 ± 0.1 (0.88) in %area/h for control, 1c, and MTX, respectively. The results confirmed the capability of 1c to prevent cell migration in MDA-MB-231 cells, similar to the reference drug MTX, and other reported BTs.
The wound closure assay was performed according to the reported methods on MDA-MB-231 cell line. For this purpose, cells (2 × 10^5) were seeded in complete medium on a 24-well plate and incubated for 24 h under standard conditions. After that, the wound gap was made by scratching the cell monolayer with a 200 µL pipette tip. Cell debris and exhausted medium were discarded, washed with PBS, and the medium was replaced. […] The wound closure was monitored by microscopy at 12, 24, and 48 h, and the wound area was measured in duplicate in three independent experiments using ImageJ (1.54k) software. The results were expressed as a percentage of the control (cell culture medium with 0.1% DMSO).

MCF-7 cells [5] = assay: Annexin V apoptosis induction assay, MCF-7; type: cell-based, human; conditions: MCF-7, IC50 concentration, 48 h
From the text: (§3) Apoptosis induction is one of the most common mechanisms of cell death exerted by antineoplastic drugs. This is because cancer cells can evade this cell death mechanism, allowing malignant cells to survive and leading to tumor progression. Apoptosis involves several physiological cell modifications, including the destabilization of the phospholipid bilayer and the subsequent exposure of phosphatidylserine. This phospholipid can be easily recognized by annexin V, a protein that is useful for identifying apoptotic cells. Therefore, apoptosis was determined for both breast cancer human cell lines, MCF-7 and MDA-MB-231, and the NIH/3T3 non-tumoral cell line. […] Regarding non-malignant fibroblast cells (NIH/3T3), a slight decrease in live cells was observed only for compound 1c (60%) compared to the control (81%) and MTX (72%), as shown in Figure 12.
(§4) The annexin V cytometry assay was performed on malignant cells (MCF-7 and MDA-MB-231) and non-malignant cells (NIH/3T3) using the Annexin V-FITC Apoptosis Detection kit (Santa Cruz Biotechnology). The corresponding cells were seeded in a 12-well plate as previously described and incubated under standard conditions (1.5 × 10^5 cells/well). After 24 h of incubation, the exhausted medium was replaced, and cells were treated at the IC50 concentration for compound 1c and MTX. […]

MDA-MB-231 cells [6] = assay: Annexin V apoptosis induction assay, MDA-MB-231; type: cell-based, human; conditions: MDA-MB-231, IC50 concentration, 48 h
From the text: as §3
The annexin V cytometry assay was performed on malignant cells (MCF-7 and MDA-MB-231) and non-malignant cells (NIH/3T3) using the Annexin V-FITC Apoptosis Detection kit (Santa Cruz Biotechnology). The corresponding cells were seeded in a 12-well plate as previously described and incubated under standard conditions (1.5 × 10^5 cells/well). After 24 h of incubation, the exhausted medium was replaced, and cells were treated at the IC50 concentration for compound 1c and MTX. After 48 h, the exhausted medium was recovered for cytometric measurements, and the cells were trypsinized, inactivated with DMEM, centrifuged, washed with PBS and centrifuged (1500 rpm, 5 min, 4 °C). The PBS was removed, and the remainder was drained on gauze. The formed pellet was shaken with 300 µL of the buffer from the flow cytometry kit (Miltenyi Biotec, Bergisch Gladbach, Germany), which had previously been prepared at a concentration of 1%. The sample was left to incubate for 15 min at room temperature, protected from light, and then 100 µL aliquots were taken to the flow cytometry equipment (BD FACSAria Fusion, Franklin Lakes, NJ, USA). Five microliters of annexin and two microliters of propidium iodide (100 µg/mL) were added to the reaction with the cells. […]

NIH/3T3 cells [7] = assay: Annexin V apoptosis induction assay, NIH/3T3; type: cell-based, mouse; conditions: NIH/3T3, IC50 concentration, 48 h; control 81%
From the text: as §3, §4

SMILES | IC50 (MCF-7 cells [1]) [µM] | IC50 (MDA-MB-231 cells [2]) [µM] | IC50 (NIH/3T3 cells [3]) [µM] | IC50 (MCF-10A cells) [µM] | selectivity toward malignant cells, fold more active in MCF-7 than in MCF-10A (MCF-7 cells [1]; MCF-7 vs MCF-10A) [fold] | fold more active on MCF-7 cells than on MDA-MB-231 cells (MCF-7 cells [1]; MCF-7 vs MDA-MB-231) [fold] | wound closure rate (MDA-MB-231 cells [4]) [%area/h] | maximum wound closure (MDA-MB-231 cells [4]) [%] | late apoptosis cell population (MCF-7 cells [5]) | effect on cell viability (MDA-MB-231 cells [6]) | live cells (NIH/3T3 cells [7]) [%] | percentage of late apoptotic cells (MDA-MB-231 cells [6]; non-treated cells 14%) [%]
COc1ccccc1CNC(=S)C(=O)Nc1nc2ccccc2s1 [1b, N-(benzo[d]thiazol-2-yl)-2-((2-methoxybenzyl)amino)-2-thioxoacetamide] | > 100 | > 100 |  |  |  |  |  |  |  |  |  | 
Cc1ccc2nc(NC(=O)C(=S)NCc3ccccc3)sc2c1 [2a, 2-(benzylamino)-N-(6-methylbenzo[d]thiazol-2-yl)-2-thioxoacetamide] | 72 ± 9 | > 100 | 22 ± 4 | 43 ± 6 |  |  |  |  |  |  |  | 
Cc1ccc2nc(NC(=O)C(=S)NCCc3ccccc3)sc2c1 [2d, N-(6-methylbenzo[d]thiazol-2-yl)-2-(phenethylamino)-2-thioxoacetamide] | > 100 | > 100 |  |  |  |  |  |  |  |  |  | 
O=C(Nc1nc2ccccc2s1)C(=S)NCCc1ccccc1 [1d, N-(benzo[d]thiazol-2-yl)-2-(phenethylamino)-2-thioxoacetamide] | > 100 | > 100 |  |  |  |  |  |  |  |  |  | 
O=C(Nc1nc2ccccc2s1)C(=S)NCc1ccccc1 [1a, N-(benzo[d]thiazol-2-yl)-2-(benzylamino)-2-thioxoacetamide] | 95 ± 13 | 72 ± 7 | 29 ± 6 | 44 ± 6 |  |  |  |  |  |  |  | 
COc1ccc(CNC(=S)C(=O)Nc2nc3ccccc3s2)cc1 [1c, N-(benzo[d]thiazol-2-yl)-2-((4-methoxybenzyl)amino)-2-thioxoacetamide] | 32 ± 5 | 52 ± 8 | 41 ± 5 | 55 ± 6 | 1.7 | 1.6 | −1.0 ± 0.1 | 51 | significant increase | did not show a significant effect | 60 | 
COc1ccc(CNC(=S)C(=O)Nc2nc3ccc(C)cc3s2)cc1 [2c, 2-((4-methoxybenzyl)amino)-N-(6-methylbenzo[d]thiazol-2-yl)-2-thioxoacetamide] | 88 ± 6 | > 100 | 31 ± 6 | 74 ± 12 |  |  |  |  |  |  |  | 
COc1ccccc1CNC(=S)C(=O)Nc1nc2ccc(C)cc2s1 [2b, 2-((2-methoxybenzyl)amino)-N-(6-methylbenzo[d]thiazol-2-yl)-2-thioxoacetamide] | > 100 | > 100 |  | 42 ± 5 |  |  |  |  |  |  |  | 
CN(Cc1cnc2nc(N)nc(N)c2n1)c1ccc(C(=O)N[C@@H](CCC(=O)O)C(=O)O)cc1 [MTX, methotrexate, reference compound] | 0.8 ± 0.1 | 28 ± 3 | 26 ± 5 | 14 ± 3 |  |  | −0.7 ± 0.1 | 38 | significant increase | did not show a significant effect | 72 | 9
